Assay: mn = molality of the nth substance listed, in mol/kg
Conditions: 101 kPa, Liquid; for mass density: Pycnometric method; for viscosity / speed of sound: 308.15 K; for viscosity: Capillary tube (Ostwald / Ubbelohde) method; for speed of sound: Linear variable-path acoustic interferometer

CC(=O)[O-].CC(=O)[O-].[Mg+2] [magnesium acetate] + O
Conditions | mass density [kg/m3]
305.5 K, m1 = 1.866 | 1115.1
305.65 K, m1 = 0.646 | 1041.8
305.85 K, m1 = 1.354 | 1086.1
305.85 K, m1 = 5.732 | 1263.4
305.95 K, m1 = 0.0831 | 1001
305.95 K, m1 = 0.8751 | 1056.2
306.3 K, m1 = 0.4247 | 1026.1
306.4 K, m1 = 3.043 | 1171.3
306.4 K, m1 = 3.437 | 1191.7
306.55 K, m1 = 1.608 | 1101.3
306.65 K, m1 = 5.165 | 1247
306.75 K, m1 = 3.819 | 1203.4
306.9 K, m1 = 0.1671 | 1007
307.25 K, m1 = 2.134 | 1128.6
307.5 K, m1 = 2.622 | 1152.1
307.6 K, m1 = 4.547 | 1227.3
307.65 K, m1 = 0.0414 | 997.17
307.75 K, m1 = 1.327 | 1084
308.05 K, m1 = 1.866 | 1114
308.1 K, m1 = 1.106 | 1071.4
308.45 K, m1 = 6.187 | 1274.5
308.65 K, m1 = 0.646 | 1040.7
308.65 K, m1 = 1.354 | 1085
308.7 K, m1 = 3.437 | 1190.5
308.75 K, m1 = 0.8751 | 1055.2
308.75 K, m1 = 3.043 | 1170.1
308.85 K, m1 = 5.165 | 1245.6
308.9 K, m1 = 0.0831 | 1000
308.95 K, m1 = 3.819 | 1202.2
309.1 K, m1 = 2.411 | 1142.9
309.25 K, m1 = 0.4247 | 1025.2
309.6 K, m1 = 1.608 | 1100.1
309.7 K, m1 = 0.1671 | 1006
309.7 K, m1 = 4.547 | 1225.9
309.7 K, m1 = 5.732 | 1260.8
309.8 K, m1 = 2.134 | 1127.4
309.95 K, m1 = 2.622 | 1151

Conditions | speed of sound [m/s] | viscosity [mPa·s]
m1 = 0.0414 | 1523.3 | 0.7529
m1 = 0.0831 | 1530.3 | 0.7775
m1 = 0.1671 | 1541.4 | 0.8306
m1 = 0.4247 | 1575.1 | 1.021
m1 = 0.646 | 1601.9 | 1.231
m1 = 0.8751 | 1631.2 | 1.45
m1 = 1.106 | 1655.9 | 1.774
m1 = 1.354 | 1677.9 | 2.139
m1 = 1.608 | 1705 | 2.139
m1 = 1.866 | 1728.9 | 3.181
m1 = 2.134 | 1754.2 | 3.943
m1 = 2.411 | 1782.5 | 5.121
m1 = 2.622 | 1791.3 | 5.819
m1 = 3.043 | 1819.5 | 8.11
m1 = 3.437 | 1847.8 | 12.3
m1 = 3.819 | 1862.6 | –
m1 = 4.001 | – | 19.17
m1 = 4.547 | 1888.8 | –
m1 = 4.563 | – | 31.43
m1 = 4.929 | – | 39.25
m1 = 5.165 | 1908 | –
m1 = 5.41 | – | 72.56
m1 = 5.732 | 1914.4 | 96.97
m1 = 6.187 | – | 175.6

Reference: the NIST ThermoML archive (doi:10.1021/je060107n)
